In BindingDB's records for doi:10.1016/j.bmcl.2007.10.101 (Solvay Pharmaceuticals, 2008):

Biological target: Neuronal acetylcholine receptor subunit alpha-4 (Rattus norvegicus, UniProt P09483)
Sequence (P09483 whole entry): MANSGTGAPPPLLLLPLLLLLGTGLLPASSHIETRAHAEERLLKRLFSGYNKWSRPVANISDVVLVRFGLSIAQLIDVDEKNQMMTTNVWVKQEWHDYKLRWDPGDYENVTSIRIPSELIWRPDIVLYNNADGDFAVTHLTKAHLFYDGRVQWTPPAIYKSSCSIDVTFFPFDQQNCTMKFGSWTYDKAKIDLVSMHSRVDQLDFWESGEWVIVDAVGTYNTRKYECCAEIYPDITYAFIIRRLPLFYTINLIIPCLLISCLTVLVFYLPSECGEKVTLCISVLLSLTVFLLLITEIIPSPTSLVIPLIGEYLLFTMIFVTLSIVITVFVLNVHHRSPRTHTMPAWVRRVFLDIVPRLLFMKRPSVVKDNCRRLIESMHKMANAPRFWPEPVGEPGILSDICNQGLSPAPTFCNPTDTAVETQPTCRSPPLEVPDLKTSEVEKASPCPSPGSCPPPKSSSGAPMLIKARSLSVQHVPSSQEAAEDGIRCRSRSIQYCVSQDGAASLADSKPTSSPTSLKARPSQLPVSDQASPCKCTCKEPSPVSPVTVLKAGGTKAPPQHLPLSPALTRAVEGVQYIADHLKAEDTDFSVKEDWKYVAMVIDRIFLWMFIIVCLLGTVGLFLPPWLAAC

c1cnc2[nH]c(C3CCCNC3)cc2c1 (stereo unspecified) [CAS_24759729]
Ki: > 10 µM
